Assay: xn = mol fraction of the nth substance listed

C[C@H](N)C(=O)[O-].C[N+](C)(C)CCO + CCO
100 kPa
Settings | viscosity [mPa·s]
287.88 K, x1 = 1 | 4500
287.97 K, x1 = 0.6071 | 550
288 K, x1 = 0.2012 | 17.5
288.02 K, x1 = 0.1013 | 5.6
288.04 K, x1 = 0.8027 | 1750
288.05 K, x1 = 0.3782 | 89
288.05 K, x1 = 0.5527 | 359
288.05 K, x1 = 0.7056 | 1079
288.09 K, x1 = 0.2903 | 42
288.1 K, x1 = 1 | 5100
288.12 K, x1 = 0.894 | 2875
289.23 K, x1 = 0.6071 | 520
289.25 K, x1 = 0.3782 | 88
289.26 K, x1 = 0.2012 | 17
289.26 K, x1 = 0.8027 | 1625
289.28 K, x1 = 0.1013 | 5.3
289.28 K, x1 = 0.5527 | 339
289.29 K, x1 = 0.7056 | 990
289.31 K, x1 = 0.2903 | 40.6
289.34 K, x1 = 0.894 | 2592
289.96 K, x1 = 1 | 3700
290.21 K, x1 = 1 | 4300
290.48 K, x1 = 0.6071 | 470
290.5 K, x1 = 0.3782 | 85
290.51 K, x1 = 0.2012 | 16.4
290.51 K, x1 = 0.8027 | 1464
290.52 K, x1 = 0.1013 | 5.1
290.52 K, x1 = 0.5527 | 315
290.52 K, x1 = 0.7056 | 900
290.53 K, x1 = 0.2903 | 39.2
290.55 K, x1 = 0.894 | 2319
291.71 K, x1 = 0.6071 | 430
291.72 K, x1 = 0.2012 | 15.7
291.72 K, x1 = 0.3782 | 80
291.73 K, x1 = 0.1013 | 4.9
291.73 K, x1 = 0.2903 | 37.6
291.73 K, x1 = 0.5527 | 291
291.73 K, x1 = 0.7056 | 820
291.73 K, x1 = 0.8027 | 1311
291.74 K, x1 = 0.894 | 2072
292.02 K, x1 = 1 | 3052
292.32 K, x1 = 1 | 3520
292.91 K, x1 = 0.1013 | 4.7
292.91 K, x1 = 0.3782 | 76
292.91 K, x1 = 0.6071 | 394
292.92 K, x1 = 0.2012 | 15
292.92 K, x1 = 0.2903 | 36
292.92 K, x1 = 0.5527 | 268
292.92 K, x1 = 0.7056 | 740
292.92 K, x1 = 0.8027 | 1180
292.92 K, x1 = 0.894 | 1858
294.08 K, x1 = 1 | 2544
294.09 K, x1 = 0.1013 | 4.5
294.09 K, x1 = 0.2012 | 14.3
294.09 K, x1 = 0.2903 | 34.4
294.09 K, x1 = 0.6071 | 360
294.1 K, x1 = 0.3782 | 73
294.1 K, x1 = 0.5527 | 248
294.1 K, x1 = 0.7056 | 670
294.1 K, x1 = 0.8027 | 1065
294.1 K, x1 = 0.894 | 1669
294.41 K, x1 = 1 | 2896
295.27 K, x1 = 0.1013 | 4.4
295.27 K, x1 = 0.2012 | 13.8
295.27 K, x1 = 0.2903 | 33.1
295.27 K, x1 = 0.3782 | 70
295.27 K, x1 = 0.5527 | 231
295.27 K, x1 = 0.6071 | 333
295.27 K, x1 = 0.7056 | 620
295.27 K, x1 = 0.8027 | 970
295.27 K, x1 = 0.894 | 1510
296.14 K, x1 = 1 | 2140
296.45 K, x1 = 0.1013 | 4.2
296.45 K, x1 = 0.2012 | 13.2
296.45 K, x1 = 0.2903 | 31.7
296.45 K, x1 = 0.3782 | 66
296.45 K, x1 = 0.5527 | 216
296.45 K, x1 = 0.6071 | 308
296.45 K, x1 = 0.7056 | 560
296.45 K, x1 = 0.8027 | 880
296.45 K, x1 = 0.894 | 1365
296.48 K, x1 = 1 | 2402
297.63 K, x1 = 0.1013 | 3.97
297.63 K, x1 = 0.2012 | 12.6
297.63 K, x1 = 0.2903 | 30.2
297.63 K, x1 = 0.3782 | 63
297.63 K, x1 = 0.5527 | 200
297.63 K, x1 = 0.6071 | 283
297.63 K, x1 = 0.7056 | 520
297.63 K, x1 = 0.8027 | 800
297.63 K, x1 = 0.894 | 1234
298.2 K, x1 = 1 | 1806
298.54 K, x1 = 1 | 2000
298.81 K, x1 = 0.1013 | 3.81
298.81 K, x1 = 0.2012 | 12.1
298.81 K, x1 = 0.2903 | 29.1
298.81 K, x1 = 0.3782 | 61
298.81 K, x1 = 0.5527 | 188
298.81 K, x1 = 0.6071 | 263
298.81 K, x1 = 0.7056 | 480

CC(=O)[O-].CC[n+]1ccn(C)c1 + CCO + O
viscosity [mPa·s], 101 kPa
Settings | 298.15 K | 313.15 K | 328.15 K | 343.15 K
x2 = 0.1044, x3 = 0.8465 | 3.75 | 2.34 | 1.6 | 1.15
x2 = 0.1179, x3 = 0.7408 | 9.38 | 5.57 | 3.58 | 2.49
x2 = 0.2002, x3 = 0.3044 | 31.9 | 18.16 | 11.45 | 7.86
x2 = 0.2242, x3 = 0.3101 | 28 | 16.28 | 10.41 | 7.22
x2 = 0.2489, x3 = 0.6021 | 8.23 | 5.06 | – | –
x2 = 0.2635, x3 = 0.6879 | 3.8 | 2.41 | 1.64 | 1.19
x2 = 0.2995, x3 = 0.4047 | 14.14 | 8.83 | 5.91 | 4.2
x2 = 0.4124, x3 = 0.1068 | 20.57 | 12.7 | 8.57 | 6.09
x2 = 0.463, x3 = 0.2523 | 10.07 | 6.66 | – | –
x2 = 0.4916, x3 = 0.4053 | 4.47 | 2.99 | – | –
x2 = 0.5914, x3 = 0.1068 | 8.43 | – | – | –
x2 = 0.7052, x3 = 0.1967 | 3.19 | – | – | –

CC(=O)[O-].CC[n+]1ccn(C)c1 + CCS(=O)(=O)[O-].[NH4+]
101 kPa, x2 = 0
Settings | electrical conductivity [S/m] | viscosity [mPa·s]
303.15 K | 0.374 | 93.6
318.15 K | 0.76 | 44.2

CCCO + CC[n+]1ccccc1.N#C[N-]C#N
Settings | viscosity [mPa·s]
288.15 K, 100 kPa, x1 = 1 | 2.51

CCCO + CC[n+]1ccn(C)c1.COS(=O)(=O)[O-]
101 kPa, x2 = 0
Settings | viscosity [mPa·s]
283.15 K | 2.78
293.15 K | 2.18
313.15 K | 1.36
323.15 K | 1.11

CCCC[N+](C)(CCCC)CCCC.N#C[N-]C#N + CC[n+]1ccn(C)c1.N#C[N-]C#N
viscosity [mPa·s], 101 kPa
Settings | 303.15 K | 333.15 K | 343.15 K | 353.15 K
x2 = 0.2114 | 109.5 | – | 20.6 | 15.38
x2 = 0.3975 | – | 19.3 | – | 11.19
x2 = 0.6047 | 33 | – | – | –

OCC(F)(F)F + CC[n+]1ccn(C)c1.N#C[N-]C#N
100 kPa, x2 = 0
Settings | viscosity [mPa·s]
298.15 K | 1.77
308.15 K | 1.38

CCCCn1cc[n+](CCOCCOCC[n+]2ccn(CCCC)c2)c1.O=S(=O)([N-]S(=O)(=O)C(F)(F)F)C(F)(F)F.O=S(=O)([N-]S(=O)(=O)C(F)(F)F)C(F)(F)F + CC[n+]1ccn(C)c1.N#C[N-]C#N + O=S(=O)([N-]S(=O)(=O)C(F)(F)F)C(F)(F)F.[Li+]
100 kPa, x1 = 0.1442, x2 = 0.7526
Settings | electrical conductivity [S/m]
298 K | 0.677
303 K | 0.795
313 K | 1.05
323 K | 1.39
333 K | 1.71
343 K | 2.08

CC[S+](CC)CCOCC[S+](CC)CC.O=S(=O)([N-]S(=O)(=O)C(F)(F)F)C(F)(F)F.O=S(=O)([N-]S(=O)(=O)C(F)(F)F)C(F)(F)F + CC[n+]1ccn(C)c1.N#C[N-]C#N + O=S(=O)([N-]S(=O)(=O)C(F)(F)F)C(F)(F)F.[Li+]
100 kPa, x1 = 0.1609, x2 = 0.7379
Settings | electrical conductivity [S/m]
298 K | 0.637
303 K | 0.742
313 K | 0.987
323 K | 1.28
333 K | 1.64
343 K | 2

C[N+]1(CCOCCOCCOCC[N+]2(C)CCCC2)CCCC1.N#C[N-]C#N.N#C[N-]C#N + CC[n+]1ccn(C)c1.N#C[N-]C#N + O=S(=O)([N-]S(=O)(=O)C(F)(F)F)C(F)(F)F.[Li+]
100 kPa, x1 = 0.252, x2 = 0.6578
Settings | electrical conductivity [S/m]
298 K | 0.522
303 K | 0.63
313 K | 0.854
323 K | 1.16
333 K | 1.48
343 K | 1.86

CCCO + CC[n+]1ccn(C)c1.N#C[S-]
101 kPa, x2 = 0
Settings | viscosity [mPa·s]
283.15 K | 2.78
293.15 K | 2.18
303.15 K | 1.72
313.15 K | 1.36
323.15 K | 1.11

CC[n+]1ccn(C)c1.CS(=O)(=O)[O-] + CC[n+]1ccn(C)c1.N#C[S-] + O
viscosity [mPa·s], 100 kPa
Settings | 298.15 K | 323.15 K
x2 = 0, x1 = 1 | 166.9 | 46.66
x2 = 0.03875, x1 = 0.1179 | 5.47 | 2.895
x2 = 0.0437, x1 = 0.133 | 6.29 | 3.29
x2 = 0.04778, x1 = 0.1454 | 6.96 | 3.598
x2 = 0.04973, x1 = 0.05117 | 2.902 | 1.645
x2 = 0.07374, x1 = 0.07586 | 4.308 | 2.366
x2 = 0.08472, x1 = 0.2579 | 14.08 | 6.86
x2 = 0.09552, x1 = 0.09828 | 5.65 | 3.039
x2 = 0.132, x1 = 0.4018 | 27.86 | 12.33
x2 = 0.1688, x1 = 0.1737 | 10.72 | 5.46
x2 = 0.1857, x1 = 0.5652 | 56.4 | 21.34
x2 = 0.1882, x1 = 0.06242 | 5.9 | 3.31
x2 = 0.2473, x1 = 0.7527 | 102.6 | 32.99
x2 = 0.2641, x1 = 0.2717 | 19.62 | 9.31
x2 = 0.3704, x1 = 0.3811 | 35.52 | 15.09
x2 = 0.3722, x1 = 0.1235 | 12.81 | 6.61
x2 = 0.4929, x1 = 0.5071 | 63.5 | 23.49
x2 = 0.5588, x1 = 0.1854 | 23.25 | 10.99
x2 = 0.7509, x1 = 0.2491 | 38.43 | 16.41

CCCO + CC[n+]1ccn(CCOC)c1.N#C[S-]
100 kPa, x2 = 0
Settings | viscosity [mPa·s]
288.15 K | 2.49
293.15 K | 2.2
298.15 K | 1.95
303.15 K | 1.732
308.15 K | 1.545
313.15 K | 1.382
318.15 K | 1.24
